# According to patent US6287859A, “Identification, functional expression and chromosal localization of a sustained human proton-gated cation channel” (priority 1999, dated 2001):
# Entries after “also recorded” stand apart in the source; their conditions may differ. Like-named read-outs stand apart in the source and are kept apart here.
# What was measured:
# rASIC1A channel = biological target: T1, rASIC1A channel (Rattus norvegicus, UniProt P55926); assay: Proton-activated rASIC1A current in Xenopus oocytes (voltage clamp and outside-out patch); type: cell-based
# T1 construct: cDNA isolated from rat brain codes for a protein of 526 amino acids; expressed in transfected cells; host or cells: Xenopus laevis oocytes injected with cRNA
# T1 sequence (P55926 1-526): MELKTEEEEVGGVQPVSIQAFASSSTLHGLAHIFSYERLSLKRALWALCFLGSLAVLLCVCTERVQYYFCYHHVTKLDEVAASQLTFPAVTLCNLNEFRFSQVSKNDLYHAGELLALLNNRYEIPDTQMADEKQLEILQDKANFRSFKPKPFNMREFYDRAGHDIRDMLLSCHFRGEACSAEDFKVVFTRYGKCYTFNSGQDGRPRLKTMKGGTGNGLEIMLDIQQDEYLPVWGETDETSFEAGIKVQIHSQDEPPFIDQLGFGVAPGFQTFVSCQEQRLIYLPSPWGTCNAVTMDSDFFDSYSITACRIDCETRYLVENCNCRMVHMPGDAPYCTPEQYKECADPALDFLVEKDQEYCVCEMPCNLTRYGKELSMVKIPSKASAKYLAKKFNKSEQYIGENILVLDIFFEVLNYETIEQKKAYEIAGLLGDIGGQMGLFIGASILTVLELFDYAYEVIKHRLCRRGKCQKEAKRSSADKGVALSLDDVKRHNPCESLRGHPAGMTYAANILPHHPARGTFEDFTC
# Method: 0.25 ng of cRNA was injected into the Xenopus laevis oocytes and the recording microelectrodes for the imposed voltage and for the patch-clamp were installed two days after the injection. The bath solutions for the outside-out patch recordings and the pipettes for the outside-out patch and total cells recordings contained: 140 mM KCl (or NMDG), 2 mM MgCl2, 5 mM EGTA, 10 mM Hepes, pH 7.4 (with KOH). The pipettes for the outside-out patch recordings and the bath solutions for the outside-out patch and total cells recordings contained: 140 mM NaCl (or LiCl or NMDGCl), 2 mM MgCl2, 1.8 mM CaCl2, 10 mM Hepes, pH 7.4 (adjusted with HCl, NaOH, LiOH or TMAOH). The intracellular acidification of the oocytes was implemented by injecting […] of the internal solution at pH 2 or by perfusion and withdrawal of a bath medium containing 20 mM NH4 Cl. […] The data were sampled at 2 kHz and filtered at 500 Hz for the analysis (Logiciel Biopatch).
# [1] = system: proton-activated cationic channels of sensory neurons; settings: refs [18], [19]; cited from earlier work
# hASIC3 [2] = biological target: T2, hASIC3 (Homo sapiens, UniProt Q9UHC3); assay: H+-gated hASIC3 whole-cell current in transfected COS cells; type: cell-based
# T2 construct: expressed in transfected cells; host or cells: COS cells (DEAE-Dextran, hASIC3-PCI with CD8 marker)
# T2 sequence (Q9UHC3 1-531): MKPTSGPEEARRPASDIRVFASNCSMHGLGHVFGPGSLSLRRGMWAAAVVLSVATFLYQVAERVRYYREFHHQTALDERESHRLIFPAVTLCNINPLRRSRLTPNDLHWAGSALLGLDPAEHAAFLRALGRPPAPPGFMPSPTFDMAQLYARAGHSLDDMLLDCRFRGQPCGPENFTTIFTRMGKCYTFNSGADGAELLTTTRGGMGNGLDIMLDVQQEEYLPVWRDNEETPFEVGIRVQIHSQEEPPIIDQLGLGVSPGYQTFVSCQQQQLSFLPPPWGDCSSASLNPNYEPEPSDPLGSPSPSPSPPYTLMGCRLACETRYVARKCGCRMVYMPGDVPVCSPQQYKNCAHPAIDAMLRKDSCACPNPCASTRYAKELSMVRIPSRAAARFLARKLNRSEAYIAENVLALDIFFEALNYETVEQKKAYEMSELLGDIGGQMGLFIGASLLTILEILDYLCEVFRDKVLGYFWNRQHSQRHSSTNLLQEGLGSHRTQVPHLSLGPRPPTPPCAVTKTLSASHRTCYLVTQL
# Excerpt: (§1) The vector containing the hASIC3 coding sequence was linearized with NotI and blunt ended with T4 DNA polymerase. After inactivation of the T4 DNA polymerase, the hASIC3 coding sequence was excised with EcoRI and subsequently subcloned into the EcoRI/SalI (blunt) digested PCI expression vector (Promega). COS cells, at a density of 20.000 cells per 35 mm diameter petri dish, were transfected with a mix of CD8 and hASIC3-PCI (1:5) using the DEAE-Dextran method. Cells were used for electrophysiological measurements one to three days after transfection. Successfully transfected cells were recognised by their ability to fix CD8-antibody-coated beads. Ion currents were recorded using either the whole cell or outside-out patch-clamp technique. The pipette solution contained (in mM): KCl 120, NaCl 30, MgCl2 2, EGTA 5, HEPES 10 (pH 7.2). The bath solution contained in mM: NaCl 140, KCl 5, MgCl2 2, CaCl2 2, HEPES 10 (pH 7.3). Changes in extracellular pH were induced by opening one out of six outlets of a microperfusion system in front of the cell or patch. Test solutions having a pH of less then 6 were buffered with 10 mM MES rather than HEPES but were identical to the control solution in all other respects. Experiments were carried out at room temperature (20-24° C.).
# hASIC3 [3] = biological target: T2, hASIC3; assay: hASIC3 single channel currents in outside-out patches from transfected COS cells; type: cell-based; settings: 100 μM, outside-out patch, -60 mV, resting pH 7.3
# Excerpt: as §1
# perception of acid taste = settings: ref [2]; cited from earlier work
# [4] = H+-activated current, pH change from pH 7.4 to pH 6, -70 mV, oocytes, outside-out patch at 0 mV, read-out: Kd, reversible block of the rASIC1A channel
SMILES,Kd (rASIC1A channel; [4]) [µM],Effect on the inflowing current activated by H+ in sensory neurons [1],Effect on the sustained hASIC3 current (hASIC3 [2]; COS cells),further results
"CCN(c1nc(N)c(C(=O)NC(=N)N)nc1Cl)C(C)C [EIPA, ethylisopropylamiloride]",10,inhibited,,
N=C(N)NC(=O)c1nc(Cl)c(N)nc1N [amiloride],,inhibited,virtually not affected,"Kd (rASIC1A channel): 10 µM; IC50 (hASIC3 [2]; cells clamped at -60 mV, currents as fraction of mean current in absence of drug, read-out: K0.5, dose-response curve for inhibition of hASIC3 current): 15.9 µM; Kd (hASIC3 [2]; transient current, COS cells, read-out: KD, inhibition of the transient hASIC3 current): 15.9 µM; Effect on spontaneous hASIC3 channel activity at pH 7.3 (hASIC3 [3]): inhibited; also recorded: disappears; Effect on perception of acid taste (perception of acid taste): inhibits the perception of acid taste"
NC(=NCc1ccccc1)NC(=O)c1nc(Cl)c(N)nc1N [benzamil],10,,,
Nc1nc(N)c2nc(-c3ccccc3)c(N)nc2n1 [triamterene],,,virtually not affected,"Effect on the transient hASIC3 current (hASIC3 [2]; transient current, COS cells): inhibited"
